As usually defined, the IC50 is the point on the concentration scale where inhibition reaches its midpoint.

A short description of the assay: Antagonist activity at P2Y12 receptor assessed as platelet aggregation by washed platelet assay.
As for `CCNC(=O)Nc1ncnc2c1ncn2[C@@H]1O[C@H](CS(=O)(=O)CC(C)O)[C@H]2O[C@H](/C=C/c3ccccc3)O[C@H]21` (stereo partly specified), the IC50 stood at 2490 nM.
With `CCNC(=O)Nc1ncnc2c1ncn2[C@@H]1O[C@H](CNCc2ccccc2F)[C@H]2O[C@H](/C=C/c3ccccc3)O[C@H]21`, the IC50 is 2550 nM.
Take `CCNC(=O)Nc1ncnc2c1ncn2[C@@H]1O[C@H](CSCC(O)CO)[C@H]2O[C@H](/C=C/c3ccccc3)O[C@H]21` (stereo partly specified): the IC50 came out at 9900 nM.
In the case of `CCNC(=O)Nc1ncnc2c1ncn2[C@@H]1O[C@H](CNCC(=O)O)[C@H]2O[C@H](/C=C/c3ccccc3)O[C@H]21`, the half-inhibitory concentration (IC50) is 513 nM.
Take `CCNC(=O)Nc1ncnc2c1ncn2[C@@H]1O[C@H](COCC(=O)O)[C@H]2O[C@H](/C=C/c3ccccc3)O[C@H]21`: the IC50 came out at 243 nM.
In the case of `CCNC(=O)Nc1ncnc2c1ncn2[C@@H]1O[C@H](COCc2cccc(C(=O)O)c2)[C@H]2O[C@H](/C=C/c3ccccc3)O[C@H]21`, the IC50 turned out to be 616 nM.
Under `CCNC(=O)Nc1ncnc2c1ncn2[C@@H]1O[C@H](CN)[C@H]2O[C@H](/C=C/c3ccccc3)O[C@H]21` stands 4730 nM.
Under `CCNC(=O)Nc1ncnc2c1ncn2[C@@H]1O[C@H](CNC(=O)c2cccs2)[C@H]2O[C@H](/C=C/c3ccccc3)O[C@H]21` stands 2230 nM.
`CCNC(=O)Nc1ncnc2c1ncn2[C@@H]1O[C@H](CS(=O)(=O)CC(=O)O)[C@H]2O[C@H](/C=C/c3ccccc3)O[C@H]21`: the half-maximal inhibitory concentration (IC50) was found to be 2480 nM.
With `CCNC(=O)Nc1ncnc2c1ncn2[C@@H]1O[C@H](CNCC2CC2C(=O)OCC)[C@H]2O[C@H](/C=C/c3ccccc3)O[C@H]21` (stereo partly specified), the concentration for half-maximal inhibition (IC50) was 4330 nM.
As for `CCNC(=O)Nc1ncnc2c1ncn2[C@@H]1O[C@H](CO)[C@H]2O[C@H](/C=C/c3ccccc3)O[C@H]21`, the 50% inhibitory concentration (IC50) is 1270 nM.
For `CCNC(=O)Nc1ncnc2c1ncn2[C@@H]1O[C@H](COCc2ccccc2C(=O)O)[C@H]2O[C@H](/C=C/c3ccccc3)O[C@H]21`, the 50% inhibitory concentration (IC50) came to 40 nM.
`CCNC(=O)Nc1ncnc2c1ncn2[C@@H]1O[C@H](COCc2ccc(C(=O)O)cc2)[C@H]2O[C@H](/C=C/c3ccccc3)O[C@H]21`: the IC50 amounted to 1310 nM.
As for `CCNC(=O)Nc1ncnc2c1ncn2[C@@H]1O[C@H](CNCC2CC2C(=O)O)[C@H]2O[C@H](/C=C/c3ccccc3)O[C@H]21` (stereo partly specified), the IC50 amounted to 2700 nM.
Under `CCNC(=O)Nc1ncnc2c1ncn2[C@@H]1O[C@H](CNC(=O)c2ccco2)[C@H]2O[C@H](/C=C/c3ccccc3)O[C@H]21` stands 4860 nM.
Turning to `CCNC(=O)Nc1ncnc2c1ncn2[C@@H]1O[C@H](CC(=O)O)[C@H]2O[C@H](/C=C/c3ccccc3)O[C@H]21`, the IC50 is 663 nM.
Regarding `CCNC(=O)Nc1ncnc2c1ncn2[C@@H]1O[C@H](C(=O)O)[C@H]2O[C@H](/C=C/c3ccccc3)O[C@H]21`, the IC50 came to 201 nM.
Turning to `CCNC(=O)Nc1ncnc2c1ncn2[C@@H]1O[C@H](CCC(=O)O)[C@H]2O[C@H](/C=C/c3ccccc3)O[C@H]21`, the 50% inhibitory concentration (IC50) is 495 nM.
In the case of `CCNC(=O)Nc1ncnc2c1ncn2[C@@H]1O[C@H](CSCC(=O)O)[C@H]2O[C@H](/C=C/c3ccccc3)O[C@H]21`, the IC50 is 3800 nM.
Regarding `CCNC(=O)Nc1ncnc2c1ncn2[C@@H]1O[C@H](CN(CC2CC2C(=O)O)CC2CC2C(=O)O)[C@H]2O[C@H](/C=C/c3ccccc3)O[C@H]21` (stereo partly specified), the 50% inhibitory concentration (IC50) was determined as 580 nM.
Under `CCNC(=O)Nc1ncnc2c1ncn2[C@@H]1O[C@H](CNC(=O)CO)[C@H]2O[C@H](/C=C/c3ccccc3)O[C@H]21` stands 2950 nM.

(Values after BindingDB's records for doi:10.1016/j.bmcl.2008.01.038 (Inspire Pharmaceuticals, 2008).)
